Experimental data: patent publication US11524968B2, “Heterocyclic compound as a protein kinase inhibitor” (HK inno.N Corporation, priority 2017, dated 2022)

target: JAK1 (Homo sapiens (Human), UniProt P23458); assay: Analysis of JAK1 activity inhibition ability (ADP-Glo Kinase Assay); type: biochemical; settings: JAK1 enzyme, ADP-Glo luminescence, ATP 250 uM, IRS-itide substrate, 30° C. 40 minutes; read-out: IC50
Procedure, shortened: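 JAK1 enzyme, IRS-itide substrate (40 ng/mL) and 250 uM ATP, both as prepared in kinase buffer (Tris-HCl pH 7.5, MgCl2, BSA, DTT), reacted with compound 40 min at 30 °C. ADP formed was detected by ADP-Glo luminescence; IC50 is the concentration giving 50% inhibition versus control.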

Sequence of JAK1 (P23458 whole entry): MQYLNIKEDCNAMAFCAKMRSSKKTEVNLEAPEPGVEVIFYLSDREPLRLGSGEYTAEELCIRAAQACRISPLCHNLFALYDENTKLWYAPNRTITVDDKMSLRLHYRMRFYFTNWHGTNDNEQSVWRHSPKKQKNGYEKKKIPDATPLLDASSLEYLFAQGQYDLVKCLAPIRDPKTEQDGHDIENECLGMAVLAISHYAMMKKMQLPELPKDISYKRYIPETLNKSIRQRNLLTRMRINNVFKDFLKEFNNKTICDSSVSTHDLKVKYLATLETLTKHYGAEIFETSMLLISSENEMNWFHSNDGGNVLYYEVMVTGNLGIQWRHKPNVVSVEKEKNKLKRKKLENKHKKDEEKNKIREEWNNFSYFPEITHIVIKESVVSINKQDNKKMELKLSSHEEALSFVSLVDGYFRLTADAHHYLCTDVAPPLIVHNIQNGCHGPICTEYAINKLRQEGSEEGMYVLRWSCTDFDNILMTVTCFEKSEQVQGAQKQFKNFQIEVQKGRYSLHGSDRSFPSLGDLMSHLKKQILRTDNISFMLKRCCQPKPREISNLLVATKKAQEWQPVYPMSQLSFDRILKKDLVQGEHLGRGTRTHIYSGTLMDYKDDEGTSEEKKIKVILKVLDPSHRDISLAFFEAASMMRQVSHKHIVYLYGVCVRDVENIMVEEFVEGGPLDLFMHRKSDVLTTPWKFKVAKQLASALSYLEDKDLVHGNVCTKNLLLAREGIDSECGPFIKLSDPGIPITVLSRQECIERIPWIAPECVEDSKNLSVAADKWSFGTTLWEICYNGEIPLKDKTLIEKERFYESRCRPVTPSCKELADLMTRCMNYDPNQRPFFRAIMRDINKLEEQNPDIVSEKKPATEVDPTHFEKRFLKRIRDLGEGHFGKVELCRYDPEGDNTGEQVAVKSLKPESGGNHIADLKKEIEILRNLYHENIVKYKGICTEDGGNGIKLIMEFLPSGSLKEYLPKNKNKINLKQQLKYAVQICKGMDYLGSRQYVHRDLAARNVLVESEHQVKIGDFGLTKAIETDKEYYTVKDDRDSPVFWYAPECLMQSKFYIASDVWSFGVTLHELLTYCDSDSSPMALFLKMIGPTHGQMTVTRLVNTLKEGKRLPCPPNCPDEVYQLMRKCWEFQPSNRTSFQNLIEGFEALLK

For `O=C(Nc1cc(C2=CCN(C(=O)N3CCOCC3)CC2)c2cc[nH]c2n1)C1CC1` [Example 446, N-(4-(1-(morpholine-4-carbonyl)-1,2,3,6-tetrahydropyridin-4-yl)-1H-pyrrolo[2,3-b]pyridin-6-yl)cyclopropanecarboxamide], which IC50 is on record?
Its IC50 is > 200 nM.

`N#CCNC(=O)N1CC=C(c2cc(NC(=O)C3CC3)nc3[nH]ccc23)CC1` [Example 447, N-(cyanomethyl)-4-(6-(cyclopropanecarboxamido)-1H-pyrrolo[2,3-b]pyridin-4-yl)-3,6-dihydropyridine-1 (2H)-carboxamide] was tested. Which IC50 did it give?
Its IC50 is 20 to 200 nM.

`O=C(Nc1cc(C2=CC3CCC(C2)N3C(=O)NCC(F)(F)F)c2cc[nH]c2n1)C1CC1` (stereo not shown) [Example 448, 3-(6-(cyclopropanecarboxamido)-1H-pyrrolo[2,3-b]pyridin-4-yl)-N-(2,2,2-trifluoroethyl)-8-azabicyclo[3.2.1]oct-2-ene-8-carboxamide] was tested. Which IC50 did it give?
The IC50 was < 20 nM.

For `CCCCNC(=O)N1C2C=C(c3cc(NC(=O)C4CC4)nc4[nH]ccc34)CC1CC2` (stereo not shown) [Example 449, N-butyl-3-(6-(cyclopropanecarboxamido)-1H-pyrrolo[2,3-b]pyridin-4-yl)-8-azabicyclo[3.2.1]oct-2-ene-8-carboxamide], which IC50 is on record?
The IC50 was 20 to 200 nM.

Which IC50 does the source give for `O=C(Nc1cc(C2=CCN(C(=O)NC(C3CC3)C(F)(F)F)CC2)c2cc[nH]c2n1)C1CC1` (stereo not shown) [Example 450, 4-(6-(cyclopropanecarboxamido)-1H-pyrrolo[2,3-b]pyridin-4-yl)-N-(1-cyclopropyl-2,2,2-trifluoroethyl)-3,6-dihydropyridine-1 (2H)-carboxamide] here?
The IC50 was > 200 nM.

With `O=C(Nc1cc(C2=CCN(C(=O)n3ccnc3)CC2)c2cc[nH]c2n1)C1CC1` [Example 451, N-(4-(1-(1H-imidazole-1-carbonyl)-1,2,3,6-tetrahydropyridin-4-yl)-1H-pyrrolo[2,3-b]pyridin-6-yl)cyclopropanecarboxamide] as the compound, how does the IC50 read?
Its IC50 is 20 to 200 nM.

`CC1CN(C(=O)n2ccnc2)CC=C1c1cc(NC(=O)C2CC2)nc2[nH]ccc12` (stereo not shown) [Example 452, N-(4-(1-(1H-imidazole-1-carbonyl)-3-methyl-1,2,3,6-tetrahydropyridin-4-yl)-1H-pyrrolo[2,3-b]pyridin-6-yl)cyclopropanecarboxamide] was tested. Which IC50 did it give?
The IC50 was < 20 nM.

How did the IC50 turn out when `CC1CN(C(=O)NCC(F)(F)F)CC=C1c1cc(NC(=O)C2CC2)nc2[nH]ccc12` (stereo not shown) [Example 453, 4-(6-(cyclopropanecarboxamido)-1H-pyrrolo[2,3-b]pyridin-4-yl)-3-methyl-N-(2,2,2-trifluoroethyl)-3,6-dihydropyridine-1 (2H)-carboxamide] was run?
Its IC50 is < 20 nM.

`CC(C)(C)OC(=O)N1CC=C(c2cc(NC(=O)C3CC3)nc3[nH]ccc23)CC1` [Example 454, tert-butyl 4-(6-(cyclopropanecarboxamido)-1H-pyrrolo[2,3-b]pyridin-4-yl)-3,6-dihydropyridine-1 (2H)-carboxylate] was tested. Which IC50 did it give?
The IC50 was 20 to 200 nM.

How did the IC50 turn out when `N#CCOC(=O)N1CC=C(c2cc(NC(=O)C3CC3)nc3[nH]ccc23)CC1` [Example 455, cyanomethyl 4-(6-(cyclopropanecarboxamido)-1H-pyrrolo[2,3-b]pyridin-4-yl)-3,6-dihydropyridine-1 (2H)-carboxylate] was run?
Its IC50 is < 20 nM.

Which IC50 does the source give for `CC1CN(C(=O)OC(C)(C)C)CC=C1c1cc(NC(=O)C2CC2)nc2[nH]ccc12` (stereo not shown) [Example 456, tert-butyl 4-(6-(cyclopropanecarboxamido)-1H-pyrrolo[2,3-b]pyridin-4-yl)-3-methyl-3,6-dihydropyridine-1 (2H)-carboxylate] here?
The IC50 was > 200 nM.

`Cc1c(NC(=O)C2CC2)nc2[nH]ccc2c1C1=CCN(C(=O)OC(C)(C)C)CC1` [Example 457, tert-butyl 4-(6-(cyclopropanecarboxamido)-5-methyl-1H-pyrrolo[2,3-b]pyridin-4-yl)-3,6-dihydropyridine-1 (2H)-carboxylate] was tested. Which IC50 did it give?
The IC50 was > 200 nM.

With `CCC1CN(C(=O)OC(C)(C)C)CC=C1c1cc(NC(=O)C2CC2)nc2[nH]ccc12` (stereo not shown) [Example 458, tert-butyl 4-(6-(cyclopropanecarboxamido)-1H-pyrrolo[2,3-b]pyridin-4-yl)-3-ethyl-3,6-dihydropyridine-1 (2H)-carboxylate] as the compound, how does the IC50 read?
The IC50 was > 200 nM.

`CC(C)(C)OC(=O)N1C=C(c2cc(NC(=O)C3CC3)nc3[nH]ccc23)CCC1` [Example 459, tert-butyl 5-(6-(cyclopropanecarboxamido)-1H-pyrrolo[2,3-b]pyridin-4-yl)-3,4-dihydropyridine-1 (2H)-carboxylate] was tested. Which IC50 did it give?
The IC50 was > 200 nM.

For `CC(C)(C)OC(=O)N1CCC=C(c2cc(NC(=O)C3CC3)nc3[nH]ccc23)C1` [Example 460, tert-butyl 5-(6-(cyclopropanecarboxamido)-1H-pyrrolo[2,3-b]pyridin-4-yl)-3,6-dihydropyridine-1 (2H)-carboxylate], which IC50 is on record?
The IC50 was > 200 nM.

Which IC50 does the source give for `CC(C)(C)OC(=O)N1CC=C(c2cc(NC(=O)C3CC3)nc3[nH]ccc23)C1` [Example 461, tert-butyl 3-(6-(cyclopropanecarboxamido)-1H-pyrrolo[2,3-b]pyridin-4-yl)-2,5-dihydro-1H-pyrrole-1-carboxylate] here?
The IC50 was > 200 nM.

With `CCNC(=S)Nc1ccc(-c2cc(NC(=O)C3CC3)nc3[nH]ccc23)cc1` [Example 462, N-(4-(4-(3-ethylthioureido)phenyl)-1H-pyrrolo[2,3-b]pyridin-6-yl)cyclopropanecarboxamide] as the compound, how does the IC50 read?
Its IC50 is 20 to 200 nM.

How did the IC50 turn out when `CCCCNC(=S)Nc1ccc(-c2cc(NC(=O)C3CC3)nc3[nH]ccc23)cc1` [Example 463, N-(4-(4-(3-butylthioureido)phenyl)-1H-pyrrolo[2,3-b]pyridin-6-yl)cyclopropanecarboxamide] was run?
The IC50 was > 200 nM.

How did the IC50 turn out when `O=C(Nc1nc(-c2ccc(NC(=S)NC3CCCCC3)cc2)c2cc[nH]c2n1)C1CC1` [Example 464, N-(4-(4-(3-cyclohexylthioureido)phenyl)-7H-pyrrolo[2,3-d]pyrimidin-2-yl)cyclopropanecarboxamide] was run?
Its IC50 is > 200 nM.

For `CCCCNC(=S)Nc1ccc(-c2nc(NC(=O)C3CC3)nc3[nH]ccc23)cc1` [Example 465, N-(4-(4-(3-butylthioureido)phenyl)-7H-pyrrolo[2,3-d]pyrimidin-2-yl)cyclopropanecarboxamide], which IC50 is on record?
The IC50 was 20 to 200 nM.

`CCNC(=S)Nc1ccc(-c2nc(NC(=O)C3CC3)nc3[nH]ccc23)cc1` [Example 466, N-(4-(4-(3-ethylthioureido)phenyl)-7H-pyrrolo[2,3-d]pyrimidin-2-yl)cyclopropanecarboxamide] was tested. Which IC50 did it give?
Its IC50 is 20 to 200 nM.

Which IC50 does the source give for `CCCNC(=S)Nc1ccc(-c2nc(NC(=O)C3CC3)nc3[nH]ccc23)cc1` [Example 467, N-(4-(4-(3-propylthioureido)phenyl)-7H-pyrrolo[2,3-d]pyrimidin-2-yl)cyclopropanecarboxamide] here?
Its IC50 is 20 to 200 nM.

`CCNC(=S)N1CC=C(c2cc(NC(=O)C3CC3)nc3[nH]ccc23)CC1` [Example 468, N-(4-(1-(ethylcarbamothioyl)-1,2,3,6-tetrahydropyridin-4-yl)-1H-pyrrolo[2,3-b]pyridin-6-yl)cyclopropanecarboxamide] was tested. Which IC50 did it give?
Its IC50 is 20 to 200 nM.

How did the IC50 turn out when `CCNC(=S)N1C2C=C(c3cc(NC(=O)C4CC4)nc4[nH]ccc34)CC1CC2` (stereo not shown) [Example 469, N-(4-(8-(ethylcarbamothioyl)-8-azabicyclo[3.2.1]oct-2-en-3-yl)-1H-pyrrolo[2,3-b]pyridin-6-yl)cyclopropanecarboxamide] was run?
The IC50 was < 20 nM.

With `O=C(Nc1cc(-c2ccc(NCC3CC3)cc2)c2cc[nH]c2n1)C1CC1` [Example 470, N-(4-(4-((cyclopropylmethyl)amino)phenyl)-1H-pyrrolo[2,3-b]pyridin-6-yl)cyclopropanecarboxamide] as the compound, how does the IC50 read?
Its IC50 is 20 to 200 nM.

With `O=C(Nc1cc(-c2ccc(NCC3CCCCC3)cc2)c2cc[nH]c2n1)C1CC1` [Example 471, N-(4-(4-((cyclohexylmethyl)amino)phenyl)-1H-pyrrolo[2,3-b]pyridin-6-yl)cyclopropanecarboxamide] as the compound, how does the IC50 read?
Its IC50 is > 200 nM.

`O=C(Nc1cc(-c2ccc(NCc3ccccc3)cc2)c2cc[nH]c2n1)C1CC1` [Example 472, N-(4-(4-(benzylamino)phenyl)-1H-pyrrolo[2,3-b]pyridin-6-yl)cyclopropanecarboxamide] was tested. Which IC50 did it give?
The IC50 was > 200 nM.

How did the IC50 turn out when `O=C(Nc1nc(-c2ccc(NCc3ccc(F)cc3)cc2)c2cc[nH]c2n1)C1CC1` [Example 473, N-(4-(4-((4-fluorobenzyl)amino)phenyl)-7H-pyrrolo[2,3-d]pyrimidin-2-yl)cyclopropanecarboxamide] was run?
Its IC50 is < 20 nM.

For `O=C(Nc1nc(-c2ccc(NCc3cccc(F)c3)cc2)c2cc[nH]c2n1)C1CC1` [Example 474, N-(4-(4-((3-fluorobenzyl)amino)phenyl)-7H-pyrrolo[2,3-d]pyrimidin-2-yl)cyclopropanecarboxamide], which IC50 is on record?
The IC50 was < 20 nM.

Which IC50 does the source give for `O=C(Nc1nc(-c2ccc(NCc3ccc(Cl)cc3)cc2)c2cc[nH]c2n1)C1CC1` [Example 475, N-(4-(4-((4-chlorobenzyl)amino)phenyl)-7H-pyrrolo[2,3-d]pyrimidin-2-yl)cyclopropanecarboxamide] here?
The IC50 was < 20 nM.

Which IC50 does the source give for `O=C(Nc1nc(-c2ccc(NCCCO)cc2)c2cc[nH]c2n1)C1CC1` [Example 476, N-(4-(4-((3-hydroxypropyl)amino)phenyl)-7H-pyrrolo[2,3-d]pyrimidin-2-yl)cyclopropanecarboxamide] here?
Its IC50 is > 200 nM.

`N#CCCn1cc(-c2cc(NC(=O)C3CC3)nc3[nH]ccc23)cn1` [Example 477, N-(4-(1-(2-cyanoethyl)-1H-pyrazol-4-yl)-1H-pyrrolo[2,3-b]pyridin-6-yl)cyclopropanecarboxamide] was tested. Which IC50 did it give?
Its IC50 is < 20 nM.

For `O=C(Nc1cc(-c2cnn(CC3CC3)c2)c2cc[nH]c2n1)C1CC1` [Example 478, N-(4-(1-(cyclopropylmethyl)-1H-pyrazol-4-yl)-1H-pyrrolo[2,3-b]pyridin-6-yl)cyclopropanecarboxamide], which IC50 is on record?
Its IC50 is < 20 nM.

For `O=C(Nc1cc(-c2cnn(Cc3ccccc3)c2)c2cc[nH]c2n1)C1CC1` [Example 479, N-(4-(1-benzyl-1H-pyrazol-4-yl)-1H-pyrrolo[2,3-b]pyridin-6-yl)cyclopropanecarboxamide], which IC50 is on record?
Its IC50 is 20 to 200 nM.
